Data published in US20260242419A1, “A CYCLIC PEPTIDE FOR TRAPPING INTERLEUKIN-1 BETA” (Merck Sharp & Dohme LLC, priority 2023, published 2026).
Starred links: 1 amine or outer side, 2 acyl side, 3 side chain; linkers in the order of their positions; H or OH if unused. Non-standard residues stand in square brackets, D forms with d. Residues, ends and D or L forms follow the SMILES beside them. Ala(2-carboxypyrimidin-5-yl) = N[C@@H](Cc1cnc(C(=O)O)nc1)C(=O)O; dPro(4R-(4-pyridylmethyl)) = O=C(O)[C@H]1C[C@@H](Cc2ccncc2)CN1; Trp(βS-Me,4-F) = C[C@@H](c1c[nH]c2cccc(F)c12)[C@H](N)C(=O)O; Bip(4'-COOH) = N[C@@H](Cc1ccc(-c2ccc(C(=O)O)cc2)cc1)C(=O)O; dPro(4R-Bzl(4-F)) = O=C(O)[C@H]1C[C@@H](Cc2ccc(F)cc2)CN1; dPro(3S-(4-F-Bn)) = O=C(O)[C@@H]1NCC[C@@H]1Cc1ccc(F)cc1; X31 = O=C(O)c1ccc([C@@H](O)[C@H](N[*:1])C(=O)[*:2])cc1; X32 = Cn1cnc(-c2ccc(C[C@H](N[*:1])C(=O)[*:2])cc2)c1; X41 = O=C([C@@H](N[*:1])[C@@H](O)c1ccncc1)[*:2]; Ala(pyrimidin-5-yl) = N[C@@H](Cc1cncnc1)C(=O)O; Phe(4-COOH) = N[C@@H](Cc1ccc(C(=O)O)cc1)C(=O)O; X24 = NC(=O)c1ncc(C[C@H](N[*:1])C(=O)[*:2])cn1; X30 = O=C([C@@H](N[*:1])[C@H](O)c1ccncc1)[*:2]; X44 = CC(=O)N1CCN(C[C@H](N[*:1])C(=O)[*:2])CC1; Bip = N[C@@H](Cc1ccc(-c2ccccc2)cc1)C(=O)O; Pro(cis-4-F) = O=C(O)[C@@H]1C[C@H](F)CN1; Phe(4-F) = N[C@@H](Cc1ccc(F)cc1)C(=O)O; Dap(CONH2) = NC(=O)NC[C@H](N)C(=O)O; d(αMeD) = C[C@@](N)(CC(=O)O)C(=O)O; 4Pal = N[C@@H](Cc1ccncc1)C(=O)O; Dab = NCC[C@H](N)C(=O)O; Aib = CC(C)(N)C(=O)O

target: T1, IL-1β (Homo sapiens, UniProt P01584); experiment: IL-6 assay in MRC5 cells: inhibition of IL-1β induced IL-6 secretion (AlphaLISA); type: cell-based; settings: inhibition of IL-1β induced IL-6 secretion in MRC5 cells; compound pre-incubated 1 hour with recombinant human IL-1β; read-out: MRC5 IC50
T1 construct: purchased BioLegend 579404
T1 sequence (P01584 117-269): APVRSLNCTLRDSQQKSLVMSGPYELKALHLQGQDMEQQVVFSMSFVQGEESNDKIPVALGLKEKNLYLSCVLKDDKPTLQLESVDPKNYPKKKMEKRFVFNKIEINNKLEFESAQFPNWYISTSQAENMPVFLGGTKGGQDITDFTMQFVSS
Method in brief: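 Compound was pre-incubated 1 h at ambient temperature with recombinant human IL-1β at 2λ EC80 before adding human lung fibroblast MRC5 cells (3000/well) in EMEM with 0.025% BSA. After overnight culture at 37 °C, 5% CO2, secreted IL-6 in conditioned medium was measured by AlphaLISA; IC50 from 4-parameter logistic fits.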

IC50 | Structure (SMILES)
0.014 nM | C[C@@H](c1c[nH]c2cccc(F)c12)[C@@H]1NC(=O)[C@@H]2C[C@H](F)CN2C(=O)CNC(=O)[C@H](Cc2ccc(C(=O)O)cc2)NC(=O)[C@H](Cc2ccncc2)NC(=O)[C@H](Cc2ccc(-c3ccc(C(=O)O)cc3)cc2)NC(=O)[C@H]2C[C@@H](Cc3ccncc3)CN2C(=O)CNC(=O)[C@H](CCN)NC(=O)[C@H](CCC(N)=O)NC(=O)[C@H](Cc2cnc(C(N)=O)nc2)NC(=O)C(C)(C)NC(=O)[C@H](Cc2c[nH]c3ccccc23)NC(=O)[C@H](CO)NC(=O)C(C)(C)NC1=O [Example 267] (cyclo([Bip(4'-COOH)][4Pal][Phe(4-COOH)]G[Pro(cis-4-F)][Trp(βS-Me,4-F)][Aib]SW[Aib][X24]Q[Dab]G[dPro(4R-(4-pyridylmethyl))]))
0.014 nM | C[C@@H](c1c[nH]c2cccc(F)c12)[C@@H]1NC(=O)[C@@H]2C[C@H](F)CN2C(=O)CNC(=O)[C@H](Cc2ccc(C(=O)O)cc2)NC(=O)[C@H](Cc2ccncc2)NC(=O)[C@H](Cc2ccc(-c3ccc(C(=O)O)cc3)cc2)NC(=O)[C@H]2C[C@@H](Cc3ccncc3)CN2C(=O)CNC(=O)[C@H](CCN)NC(=O)[C@H](CCC(N)=O)NC(=O)[C@H](Cc2cnc(C(=O)O)nc2)NC(=O)C(C)(C)NC(=O)[C@H](Cc2c[nH]c3ccccc23)NC(=O)[C@H](CO)NC(=O)C(C)(C)NC1=O [Example 268] (cyclo([Bip(4'-COOH)][4Pal][Phe(4-COOH)]G[Pro(cis-4-F)][Trp(βS-Me,4-F)][Aib]SW[Aib][Ala(2-carboxypyrimidin-5-yl)]Q[Dab]G[dPro(4R-(4-pyridylmethyl))]))
0.014 nM | C[C@@H](c1c[nH]c2cccc(F)c12)[C@@H]1NC(=O)[C@@H]2C[C@H](F)CN2C(=O)CNC(=O)[C@H](Cc2ccc(C(=O)O)cc2)NC(=O)[C@H](Cc2ccncc2)NC(=O)[C@H](Cc2ccc(-c3ccccc3)cc2)NC(=O)[C@H]2C[C@@H](Cc3ccncc3)CN2C(=O)CNC(=O)[C@H](CCN)NC(=O)[C@H](CCC(N)=O)NC(=O)[C@H](Cc2cnc(C(=O)O)nc2)NC(=O)C(C)(C)NC(=O)[C@H](Cc2c[nH]c3ccccc23)NC(=O)[C@H](CO)NC(=O)C(C)(C)NC1=O [Example 269] (cyclo([Bip][4Pal][Phe(4-COOH)]G[Pro(cis-4-F)][Trp(βS-Me,4-F)][Aib]SW[Aib][Ala(2-carboxypyrimidin-5-yl)]Q[Dab]G[dPro(4R-(4-pyridylmethyl))]))
0.023 nM | C[C@@H](c1c[nH]c2cccc(F)c12)[C@@H]1NC(=O)[C@@H]2C[C@H](F)CN2C(=O)CNC(=O)[C@H](Cc2ccc(C(=O)O)cc2)NC(=O)[C@H](Cc2ccncc2)NC(=O)[C@H](Cc2ccc(-c3ccc(C(=O)O)cc3)cc2)NC(=O)[C@H]2C[C@@H](Cc3ccncc3)CN2C(=O)CNC(=O)[C@H](CNC(N)=O)NC(=O)[C@H](CCC(N)=O)NC(=O)[C@H](Cc2cncnc2)NC(=O)C(C)(C)NC(=O)[C@H](Cc2c[nH]c3ccccc23)NC(=O)[C@H](CO)NC(=O)C(C)(C)NC1=O [Example 270] (cyclo([Bip(4'-COOH)][4Pal][Phe(4-COOH)]G[Pro(cis-4-F)][Trp(βS-Me,4-F)][Aib]SW[Aib][Ala(pyrimidin-5-yl)]Q[Dap(CONH2)]G[dPro(4R-(4-pyridylmethyl))]))
0.023 nM | CC(=O)N1CCN(C[C@@H]2NC(=O)C(C)(C)NC(=O)[C@H](Cc3c[nH]c4ccccc34)NC(=O)[C@H](CCC(=O)O)NC(=O)C(C)(C)NC(=O)[C@H]([C@@H](C)c3c[nH]c4cccc(F)c34)NC(=O)[C@@H]3C[C@H](F)CN3C(=O)CNC(=O)[C@H](Cc3ccc(C(=O)O)cc3)NC(=O)[C@H](Cc3ccncc3)NC(=O)[C@H](Cc3ccc(-c4ccc(C(=O)O)cc4)cc3)NC(=O)[C@H]3C[C@@H](Cc4ccc(F)cc4)CN3C(=O)CNC(=O)[C@H](CO)NC(=O)[C@H](CCC(N)=O)NC2=O)CC1 [Example 271] (cyclo([Bip(4'-COOH)][4Pal][Phe(4-COOH)]G[Pro(cis-4-F)][Trp(βS-Me,4-F)][Aib]EW[Aib][X44]QSG[dPro(4R-Bzl(4-F))]))
0.018 nM | C[C@@H](c1c[nH]c2cccc(F)c12)[C@@H]1NC(=O)[C@@H]2C[C@H](F)CN2C(=O)CNC(=O)[C@H](Cc2ccc(C(=O)O)cc2)NC(=O)[C@H](Cc2ccncc2)NC(=O)[C@H](Cc2ccc(-c3ccc(C(=O)O)cc3)cc2)NC(=O)[C@H]2C[C@@H](Cc3ccc(F)cc3)CN2C(=O)CNC(=O)[C@H](CCN)NC(=O)[C@H](CCC(N)=O)NC(=O)[C@H]([C@@H](O)c2ccncc2)NC(=O)C(C)(C)NC(=O)[C@H](Cc2c[nH]c3ccccc23)NC(=O)[C@H](CO)NC(=O)C(C)(C)NC1=O [Example 272] (cyclo([Bip(4'-COOH)][4Pal][Phe(4-COOH)]G[Pro(cis-4-F)][Trp(βS-Me,4-F)][Aib]SW[Aib][X41]Q[Dab]G[dPro(4R-Bzl(4-F))]))
0.013 nM | C[C@@H](c1c[nH]c2cccc(F)c12)[C@@H]1NC(=O)[C@@H]2C[C@H](F)CN2C(=O)CNC(=O)[C@H](Cc2ccc(C(=O)O)cc2)NC(=O)[C@H](Cc2ccncc2)NC(=O)[C@H](Cc2ccc(-c3ccc(C(=O)O)cc3)cc2)NC(=O)[C@H]2C[C@@H](Cc3ccc(F)cc3)CN2C(=O)CNC(=O)[C@H](CCN)NC(=O)[C@H](CCC(N)=O)NC(=O)[C@H]([C@H](O)c2ccncc2)NC(=O)C(C)(C)NC(=O)[C@H](Cc2c[nH]c3ccccc23)NC(=O)[C@H](CO)NC(=O)C(C)(C)NC1=O [Example 273] (cyclo([Bip(4'-COOH)][4Pal][Phe(4-COOH)]G[Pro(cis-4-F)][Trp(βS-Me,4-F)][Aib]SW[Aib][X30]Q[Dab]G[dPro(4R-Bzl(4-F))]))
0.026 nM | C[C@@H](c1c[nH]c2cccc(F)c12)[C@@H]1NC(=O)[C@@H]2C[C@H](F)CN2C(=O)CNC(=O)[C@H](Cc2ccc(C(=O)O)cc2)NC(=O)[C@H]([C@H](O)c2ccncc2)NC(=O)[C@H](Cc2ccc(-c3ccc(C(=O)O)cc3)cc2)NC(=O)[C@H]2C[C@@H](Cc3ccc(F)cc3)CN2C(=O)CNC(=O)[C@H](CCN)NC(=O)[C@H](CCC(N)=O)NC(=O)[C@H](Cc2cncnc2)NC(=O)C(C)(C)NC(=O)[C@H](Cc2c[nH]c3ccccc23)NC(=O)[C@H](CO)NC(=O)C(C)(C)NC1=O [Example 274] (cyclo([Bip(4'-COOH)][X30][Phe(4-COOH)]G[Pro(cis-4-F)][Trp(βS-Me,4-F)][Aib]SW[Aib][Ala(pyrimidin-5-yl)]Q[Dab]G[dPro(4R-Bzl(4-F))]))
0.018 nM | C[C@@H](c1c[nH]c2cccc(F)c12)[C@@H]1NC(=O)[C@@H]2C[C@H](F)CN2C(=O)CNC(=O)[C@H]([C@H](O)c2ccc(C(=O)O)cc2)NC(=O)[C@H](Cc2ccncc2)NC(=O)[C@H](Cc2ccc(-c3ccc(C(=O)O)cc3)cc2)NC(=O)[C@H]2C[C@@H](Cc3ccc(F)cc3)CN2C(=O)CNC(=O)[C@H](CCN)NC(=O)[C@H](CCC(N)=O)NC(=O)[C@H](Cc2cncnc2)NC(=O)C(C)(C)NC(=O)[C@H](Cc2c[nH]c3ccccc23)NC(=O)[C@H](CO)NC(=O)C(C)(C)NC1=O [Example 275] (cyclo([Bip(4'-COOH)][4Pal][X31]G[Pro(cis-4-F)][Trp(βS-Me,4-F)][Aib]SW[Aib][Ala(pyrimidin-5-yl)]Q[Dab]G[dPro(4R-Bzl(4-F))]))
0.017 nM | C[C@@H](c1c[nH]c2cccc(F)c12)[C@@H]1NC(=O)[C@@H]2C[C@H](F)CN2C(=O)CNC(=O)[C@H](Cc2ccc(C(=O)O)cc2)NC(=O)[C@H](Cc2ccncc2)NC(=O)[C@H](Cc2ccc(-c3ccc(C(=O)O)cc3)cc2)NC(=O)[C@H]2C[C@@H](Cc3ccc(F)cc3)CN2C(=O)CNC(=O)[C@H](CCN)NC(=O)[C@H](CCC(N)=O)NC(=O)[C@H](Cc2c[nH]cn2)NC(=O)C(C)(C)NC(=O)[C@H](Cc2c[nH]c3ccccc23)NC(=O)[C@H](CCC(=O)O)NC(=O)C(C)(C)NC1=O [Example 276] (cyclo([Bip(4'-COOH)][4Pal][Phe(4-COOH)]G[Pro(cis-4-F)][Trp(βS-Me,4-F)][Aib]EW[Aib]HQ[Dab]G[dPro(4R-Bzl(4-F))]))
0.023 nM | C[C@@H](c1c[nH]c2cccc(F)c12)[C@@H]1NC(=O)[C@@H]2C[C@H](F)CN2C(=O)CNC(=O)[C@H](Cc2ccc(C(=O)O)cc2)NC(=O)[C@H](Cc2ccncc2)NC(=O)[C@H](Cc2ccc(F)cc2)NC(=O)[C@H]2[C@@H](Cc3ccc(F)cc3)CCN2C(=O)CNC(=O)[C@H](CCN)NC(=O)[C@H](CCC(N)=O)NC(=O)[C@H](Cc2cncnc2)NC(=O)[C@@](C)(CC(=O)O)NC(=O)[C@H](Cc2c[nH]c3ccccc23)NC(=O)[C@H](CO)NC(=O)C(C)(C)NC1=O [Example 277] (cyclo([Phe(4-F)][4Pal][Phe(4-COOH)]G[Pro(cis-4-F)][Trp(βS-Me,4-F)][Aib]SW[d(αMeD)][Ala(pyrimidin-5-yl)]Q[Dab]G[dPro(3S-(4-F-Bn))]))
0.021 nM | C[C@@H](c1c[nH]c2cccc(F)c12)[C@@H]1NC(=O)[C@@H]2C[C@H](F)CN2C(=O)CNC(=O)[C@H](Cc2ccc(C(=O)O)cc2)NC(=O)[C@H](Cc2ccncc2)NC(=O)[C@H](Cc2ccc(O)cc2)NC(=O)[C@H]2[C@@H](Cc3ccc(F)cc3)CCN2C(=O)CNC(=O)[C@H](CCN)NC(=O)[C@H](CCC(N)=O)NC(=O)[C@H](Cc2cncnc2)NC(=O)[C@@](C)(CC(=O)O)NC(=O)[C@H](Cc2c[nH]c3ccccc23)NC(=O)[C@H](CO)NC(=O)C(C)(C)NC1=O [Example 278] (cyclo(Y[4Pal][Phe(4-COOH)]G[Pro(cis-4-F)][Trp(βS-Me,4-F)][Aib]SW[d(αMeD)][Ala(pyrimidin-5-yl)]Q[Dab]G[dPro(3S-(4-F-Bn))]))
0.013 nM | C[C@@H](c1c[nH]c2cccc(F)c12)[C@@H]1NC(=O)[C@@H]2C[C@H](F)CN2C(=O)CNC(=O)[C@H](Cc2ccc(C(=O)O)cc2)NC(=O)[C@H](Cc2ccncc2)NC(=O)[C@H](Cc2ccc(-c3cn(C)cn3)cc2)NC(=O)[C@H]2[C@@H](Cc3ccc(F)cc3)CCN2C(=O)CNC(=O)[C@H](CCN)NC(=O)[C@H](CCC(N)=O)NC(=O)[C@H](Cc2cncnc2)NC(=O)[C@@](C)(CC(=O)O)NC(=O)[C@H](Cc2c[nH]c3ccccc23)NC(=O)[C@H](CO)NC(=O)C(C)(C)NC1=O [Example 279] (cyclo([X32][4Pal][Phe(4-COOH)]G[Pro(cis-4-F)][Trp(βS-Me,4-F)][Aib]SW[d(αMeD)][Ala(pyrimidin-5-yl)]Q[Dab]G[dPro(3S-(4-F-Bn))]))
